Laboratory results from patent publication US20240025871A1, “METHODS AND SYSTEMS FOR PRODUCTION OF FURFURAL” (SHELL OIL COMPANY, priority 2020, published 2024).
Several values for one entry are separate records, joined by “and”; a condition that tells them apart may be missing. Identical values can stand only once. Like-named read-outs stand apart in the source and are kept apart here.

Tests used:
[1] = Partition of components between water+sulfolane phase and methylnaphthalene phase after dehydration reaction; assay type: physicochemical; conditions: room temperature; for [Conc]water+S: concentration in aqueous (water+sulfolane) phase; for [conc]MN: concentration in methylnaphthalene phase; for wt. %water+S: content in aqueous (water+sulfolane) phase; for wt. %MN: content in methylnaphthalene phase; for Pmol: ratio of absolute amounts polar/apolar phase, polar phase volume twice the apolar
[2] = cited from earlier work
[3] = octanol-water; water-soluble solvents, Table 3; cited from earlier work
[4] = water-insoluble solvents, Table 2
[5] = water-insoluble boronic acids, Table 1

Cc1cccc2ccccc12 [1-methylnaphtalene]
[Conc]water+S [1]: 3 mM
[conc]MN [1]: 7,000 mM
wt. %water+S ([1]; listed as 1-MN): 0.04 wt. %
wt. %water+S ([1]; listed as MN): < 0.1 wt. %
wt. %MN [1]: 91 wt. %
Pmol [1]: 0.0009
Water solubility g/L (20° C.) [2, 4]: 0.026 g/L

CCCCc1ccc(B(O)O)cc1 [4-butylphenyl boronic acid]
Water solubility g/L (20° C.) [2, 5]: Insoluble

CC(C)(C)c1ccc(B(O)O)cc1 [4-tert-Butylphenyl boronic acid]
Water solubility g/L (20° C.) [2, 5]: Insoluble

CCc1ccc(O)cc1 [4Et-phenol]
Water solubility g/L (20° C.) [2, 4]: 6.1 g/L

c1ccc2occc2c1 [Benzofuran]
Water solubility g/L (20° C.) [2, 4]: insoluble

COCCOCCOC [Diglyme]
LogP [3]: −0.8

O=Cc1ccco1 [Furfural]
[Conc]water+S [1]: 103 mM
[conc]MN [1]: 144 mM
wt. %water+S [1]: 0.88 wt. %
wt. %water+S ([1]; listed as furfural): < 1 wt. %
wt. %MN [1]: 1.3 wt. %
Pmol [1]: 1.43
share of overall furfural produced contained in non-aqueous MN-rich phase [1]: 41%

O=C1CCCO1 [gamma butyrolactone]
LogP [3]: −0.76

CC1CCC(=O)O1 (centres unmarked) [gamma valerolactone]
LogP [3]: −0.27

CN1CCCC1=O [nMe-pyrrolidone]
LogP [3]: −0.4

Cc1ccccc1B(O)O [o-tolylboronic acid]
Water solubility g/L (20° C.) [2, 5]: Slightly

CCCCCCCCB(O)O [octylboronic acid]
Water solubility g/L (20° C.) [2, 5]: Insoluble
water solubility (in words) [2]: water-insoluble

OB(O)c1ccccc1 [phenylboronic acid]
[Conc]water+S [1]: 125 mM
[conc]MN [1]: 340 mM
wt. %water+S ([1]; listed as PBA): < 1.3 wt. % and 1.3 wt. %
wt. %MN [1]: 3.7 wt. %
Pmol [1]: 0.74

O=S1(=O)CCCC1 [sulfolane]
[Conc]water+S [1]: 5,100 mM
[conc]MN [1]: 370 mM
wt. %water+S [1]: 54 wt. %
wt. %MN [1]: 4 wt. %
wt. %MN ([1]; listed as Sulfolane): 4.0 wt. %
Pmol [1]: 13.8

O [water]
[Conc]water+S [1]: 27,600 mM
[conc]MN [1]: 92 mM
wt. %water+S [1]: 44 wt. %
wt. %MN [1]: 0.15 wt. %
Pmol [1]: 601
